# Measured values published in patent publication US9382230B2, “Methods and compositions for modulating Ire1, SRC and ABL activity” (The Regents of the University of California, priority 2008, dated 2016).
# Columns and labels:
# WT Abl = WT Abl (Homo sapiens, UniProt P00519); experiment: Abl kinase cross-reactivity assay; type: biochemical
# Procedure: (§1) Assays for cross-reactivity with Src and Abl were also conducted. Purified c-Src or Abl were diluted in kinase reaction buffer (10 mM HEPES (pH 7.2), 10 mM MgCl2, 0.2 mM DTT) to a concentration of approximately 10 nM and pre-incubated with 1 mg/mL BSA, 2.5% (v/v) DMSO, 133 μM peptide (sequence EAIYAAPFKKK for Abl and EIYGEFKKK for c-Src), and varying concentrations of inhibitor. Kinase reactions were initiated by the addition of […] cold ATP supplemented with 5 mCi γ^32P ATP and allowed to proceed at room temperature (RT). At 10 minutes […] of the reactions were spotted onto phosphocellulose sheets (P81, Whatman) and subsequently soaked in was buffer (1.0% (v/v) phosphoric acid). The sheets were washed five times in buffer, dried, and transferred radioactivity was measured by phosphorimaging using a Typhoon™ scanner (Molecular Dynamics). Radioactive counts were quantified using ImageQuant software, and titration data were fit to a sigmoidal dose response to derive IC50 values using the Prism® software package. Dose responses were based on a 12 point inhibitor titration, using ⅓ dilutions starting from […].
# WT Src = WT Src (Homo sapiens, UniProt P12931); experiment: c-Src kinase cross-reactivity assay; type: biochemical
# Sequence of WT Src (P12931 whole entry): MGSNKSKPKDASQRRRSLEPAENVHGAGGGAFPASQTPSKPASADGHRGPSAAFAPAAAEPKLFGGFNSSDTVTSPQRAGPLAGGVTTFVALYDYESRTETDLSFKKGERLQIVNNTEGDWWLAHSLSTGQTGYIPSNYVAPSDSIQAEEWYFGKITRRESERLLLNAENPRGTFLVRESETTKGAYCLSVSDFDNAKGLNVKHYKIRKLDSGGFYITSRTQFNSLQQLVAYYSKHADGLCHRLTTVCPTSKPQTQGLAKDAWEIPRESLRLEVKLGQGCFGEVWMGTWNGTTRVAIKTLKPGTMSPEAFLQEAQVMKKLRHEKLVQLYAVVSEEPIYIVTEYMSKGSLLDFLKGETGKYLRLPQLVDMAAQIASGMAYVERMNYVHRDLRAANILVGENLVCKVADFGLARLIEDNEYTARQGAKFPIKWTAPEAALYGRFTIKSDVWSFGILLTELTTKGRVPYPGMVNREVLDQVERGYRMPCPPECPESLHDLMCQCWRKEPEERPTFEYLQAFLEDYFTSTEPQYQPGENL
# Procedure: as §1
# human Ire1 = human Ire1 (Homo sapiens, UniProt O75460); experiment: In vitro cleavage of 32P-stem-loop RNA by human Ire1; type: biochemical; conditions: AD series of Ire1 modulators
# Sequence of human Ire1 (O75460 19-977): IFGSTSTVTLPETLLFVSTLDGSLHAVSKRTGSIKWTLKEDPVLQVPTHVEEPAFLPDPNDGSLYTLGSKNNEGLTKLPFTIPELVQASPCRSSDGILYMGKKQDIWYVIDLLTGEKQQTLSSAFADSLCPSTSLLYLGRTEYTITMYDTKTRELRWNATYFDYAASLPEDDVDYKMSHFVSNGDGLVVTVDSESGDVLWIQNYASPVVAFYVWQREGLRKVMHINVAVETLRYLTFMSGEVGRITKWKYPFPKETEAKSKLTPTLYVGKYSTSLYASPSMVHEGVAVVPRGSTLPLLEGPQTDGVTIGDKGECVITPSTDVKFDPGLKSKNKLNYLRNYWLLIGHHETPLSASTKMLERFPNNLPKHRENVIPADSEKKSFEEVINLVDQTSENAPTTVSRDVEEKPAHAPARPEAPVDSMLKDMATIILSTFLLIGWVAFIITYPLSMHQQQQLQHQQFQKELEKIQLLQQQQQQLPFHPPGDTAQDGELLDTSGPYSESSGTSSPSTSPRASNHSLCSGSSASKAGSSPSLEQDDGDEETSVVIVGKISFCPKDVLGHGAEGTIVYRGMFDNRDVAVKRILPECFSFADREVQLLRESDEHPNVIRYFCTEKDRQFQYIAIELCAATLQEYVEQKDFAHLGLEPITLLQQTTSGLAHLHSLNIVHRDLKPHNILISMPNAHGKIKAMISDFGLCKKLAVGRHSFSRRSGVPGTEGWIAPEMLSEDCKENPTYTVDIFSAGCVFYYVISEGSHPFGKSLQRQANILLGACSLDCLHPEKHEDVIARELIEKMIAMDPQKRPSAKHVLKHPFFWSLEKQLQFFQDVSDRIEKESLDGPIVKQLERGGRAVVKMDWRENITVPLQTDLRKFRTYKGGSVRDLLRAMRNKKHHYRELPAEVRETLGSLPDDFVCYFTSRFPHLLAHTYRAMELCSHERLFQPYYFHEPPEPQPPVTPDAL
# Procedure: (§2) RNA cleavage reactions were conducted at 30° C. in buffer containing 20 mM HEPES (pH 7.5), 70 mM NaCl, 2 mM ADP (pH 7.0), 2 mM Mg(OAc)2, 5 mM DTT, 5% glycerol, less than 1 nM ^32p-labeled RNA substrate, and 3 nM-20 μM Ire1. Reaction solutions and buffers were designed using Biochem Lab Solutions 3.5. Reactions were prepared such that 1 μl of RNA was added to 9 μl of pre-warmed reaction mixture containing all components except RNA. Typically, 3-10 minute time courses were collected starting from 5 seconds for the first time point. At time intervals, 1 μl of solution was withdrawn from each reaction and mixed wish 6 μl stop solution containing 10 M urea, 0.1% SDS, 0.1 mM EDTA, 0.05% xylene cyanol, and 0.05% bromophenol blue. The samples were separated by a denaturing 10% PAGE and exposed on a phosphor storage screen. The screens were scanned on a Storm or a Typhoon instrument and quantified using ImageQuant 5.0 or GelQuant.NET 1.4 programs. The data were plotted and fit in SigmaPlot 6.0.
# In vitro cleavage of ^32P-stem-loop RNA by human Ire1, with AD series of Ire1 modulators gave the following results: […]
# Ire1 = experiment: Summary statement of Ire1 activation or inhibition (assay not specified)
# Ire1KR32 = target: T1, Ire1KR32 (Saccharomyces cerevisiae, UniProt P32361); experiment: RNase cleavage assay with Ire1 cytosolic constructs (Ire1KR32), co-factors and kinase inhibitors; type: biochemical; conditions: for activation of the RNase of Ire1KR32: FIG. 3A
# T1 construct: Overview of the Ire1 constructs; GST (N); made in house; host or cells: E. coli BL21 CodonPlus (RIPL)
# T1 sequence (P32361 with tags, fused parts or gaps): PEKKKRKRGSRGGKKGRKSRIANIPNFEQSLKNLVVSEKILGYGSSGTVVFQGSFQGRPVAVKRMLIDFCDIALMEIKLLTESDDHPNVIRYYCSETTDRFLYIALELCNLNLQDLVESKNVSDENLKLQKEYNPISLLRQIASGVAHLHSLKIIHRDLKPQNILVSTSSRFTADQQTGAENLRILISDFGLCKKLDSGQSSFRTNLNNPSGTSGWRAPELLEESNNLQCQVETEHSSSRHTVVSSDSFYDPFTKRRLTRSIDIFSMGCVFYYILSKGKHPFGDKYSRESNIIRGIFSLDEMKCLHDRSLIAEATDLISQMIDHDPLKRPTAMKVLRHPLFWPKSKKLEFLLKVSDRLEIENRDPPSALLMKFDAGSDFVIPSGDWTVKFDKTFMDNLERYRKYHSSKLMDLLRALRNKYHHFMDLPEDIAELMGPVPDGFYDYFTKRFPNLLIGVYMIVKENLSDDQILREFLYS
# Procedure: as §2
# Variants of the cytosolic portion of Ire1 that contain the kinase and the RNase domains (Ire1KR) and Ire1KR extended by 24 (Ire1KR24) or 32 (Ire1KR32) amino acids towards the N-terminus (FIG. 1A, FIG. 1C, FIG. 7) were prepared. These additional amino acid extensions are part of a ˜100 amino acid-long linker domain that tethers the kinase/RNase domains to the transmembrane domain. All three constructs cleaved site-specifically 5′-32p-labeled stem-loop oligoribonucleotides 14 derived from the XBP1 mRNA (FIG. 1B, FIG. 8). […] No ADP.Mg co-factor was required for the cooperative activation of the RNase.
# Ire1KR32 was co-crystallized with inhibitors that were designed to target CDK2 and EGFR kinases. Certain kinase inhibitors fully activated the RNase function of Ire1 (FIG. 3A). This is the first example of wild-type Ire1 activation by synthetic compounds.
# Crystals obtained with the inhibitor APY29 allowed the structure determination of the Ire1KR32-APY29 complex at 3.9 Å resolution. A well-resolved density for the inhibitor molecule was found in the ATP binding pocket of the Ire1 kinase domain (FIG. 3B). APY29 forms an extensive hydrogen-bonding network with the protein backbone formed by E746, L747, and C748 (FIG. 3C). Hydrogen bonds are likely to also form with two side chains at the active site, N751, and D828. […] Manual fitting of sunitinib guided by know structures of kinase.inhibitor complexes (e.g., PDB IDs 2G9X and 2F4J) predicts that the compound fills the nucleobase site, but not the sugar and the phosphate sub-sites. […] AIN54 could not be readily fit to the ATP pocket due to steric clashes arising partly because of the unusual position of beta strand β1 that covers the nucleotide-binding pocket of the Ire1 kinase.
# This structural difference provides an excellent tool to test the role of magnesium in the RNase activity of Ire1. Accordingly, the effect of EDTA on the RNase activity of Ire1KR32 was examined.
# [1] = test system: Xbp-1 mRNA splicing (UPR activation through Ire1) in HEK293 cells; experiment: XBP-1 mRNA splicing by RT-PCR in HEK293 cells (UPR); type: cell-based, mammalian; conditions: for % splicing mRNA XBP-I Average: Hek293 cells treated for 4 hrs, RT-PCR
# Procedure: The effect of tunicamycin, SU11248, DJM2005, APY24, and APY29 on Ire1 activity was tested in mammalian cells using HEK293 cells as a model system. Cells were treated according to the methods described in Lin J H et al., Science 318:944 (2007). After treatment with the corresponding agents for the indicated time, Xbp-1 mRNA splicing was determined by RT-PCR. Unspliced (u) and spliced (s) Xbp1-mRNA products are indicated and serve as a measure of UPR activation through Ire1.
# Exemplary compounds were assayed for their effect on UPR. Results are set forth in FIGS. 18-19 and in the table below.
# [2] = test system: XBP1-GFP reporter in Hek293-FT cells; experiment: FACS on Hek293-FT cells transfected with XBP1-GFP reporter; type: cell-based; conditions: treated for 24 hrs
# Procedure: Exemplary compounds were assayed and the results are set froth in the table below.
# yIre1 [3] = target: T2, yIre1 (Saccharomyces cerevisiae, UniProt P32361); experiment: RNA cleavage-based yIre1 activation assay; type: biochemical, yeast; set-up: unit not given here; conditions: 3 μM yIre1, stem loop RNA, 15 μM effector
# T2 construct: GST (N); made in house; host or cells: E. coli BL21 CodonPlus (RIPL)
# T2 sequence (P32361 with tags, fused parts or gaps limits assumed): T1 sequence (P32361 with tags, fused parts or gaps)
# Procedure: The RNase Cleavage Assay.
# as §2
# RNA cleavage can be used to assess yIre1 activation as shown by FIG. 20 and the table below (3 μM yIre1, stem loop RNA, 15 μM effector): […]
# yIre1 [4] = target: T2, yIre1; experiment: RNA cleavage-based yIre1 inhibition assay with pre-activated purified Ire1; type: biochemical, yeast; conditions: 1.5 μM yIre1, 100 μM ADP-2 mM Mg, 30 μM effector (FIG. 21A)
# Procedure: FIGS. 21A and B. A. RNA cleavage-based yIre1 inhibition assay with purified Ire1 under conditions that have pre-activated Ire1. […] Thus, some APY compounds could serve as both Ire1 RNase inhibitors or Ire1 RNase activators, depending on the experimental setting.
# as §2, with “RNA cleavage reactions were conducted at 30° C. in buffer containing 20 mM HEPES (pH 7.5), 70 mM NaCl, 2 mM ADP (pH 7.0), 2 mM Mg(OAc)2, 5 mM DTT, 5% glycerol, less than 1 nM ^32p-labeled RNA substrate, and 3 nM-20 μM Ire1.” left out
# An RNA cleavage inhibition assay was also performed with exemplary compounds as shown by FIG. 21A (1.5 μM yIre1 mm loop RNA, 100 μM ADP-2 mM Mg, 30 μM effector).
# Sequence of WT Abl (P00519 whole entry): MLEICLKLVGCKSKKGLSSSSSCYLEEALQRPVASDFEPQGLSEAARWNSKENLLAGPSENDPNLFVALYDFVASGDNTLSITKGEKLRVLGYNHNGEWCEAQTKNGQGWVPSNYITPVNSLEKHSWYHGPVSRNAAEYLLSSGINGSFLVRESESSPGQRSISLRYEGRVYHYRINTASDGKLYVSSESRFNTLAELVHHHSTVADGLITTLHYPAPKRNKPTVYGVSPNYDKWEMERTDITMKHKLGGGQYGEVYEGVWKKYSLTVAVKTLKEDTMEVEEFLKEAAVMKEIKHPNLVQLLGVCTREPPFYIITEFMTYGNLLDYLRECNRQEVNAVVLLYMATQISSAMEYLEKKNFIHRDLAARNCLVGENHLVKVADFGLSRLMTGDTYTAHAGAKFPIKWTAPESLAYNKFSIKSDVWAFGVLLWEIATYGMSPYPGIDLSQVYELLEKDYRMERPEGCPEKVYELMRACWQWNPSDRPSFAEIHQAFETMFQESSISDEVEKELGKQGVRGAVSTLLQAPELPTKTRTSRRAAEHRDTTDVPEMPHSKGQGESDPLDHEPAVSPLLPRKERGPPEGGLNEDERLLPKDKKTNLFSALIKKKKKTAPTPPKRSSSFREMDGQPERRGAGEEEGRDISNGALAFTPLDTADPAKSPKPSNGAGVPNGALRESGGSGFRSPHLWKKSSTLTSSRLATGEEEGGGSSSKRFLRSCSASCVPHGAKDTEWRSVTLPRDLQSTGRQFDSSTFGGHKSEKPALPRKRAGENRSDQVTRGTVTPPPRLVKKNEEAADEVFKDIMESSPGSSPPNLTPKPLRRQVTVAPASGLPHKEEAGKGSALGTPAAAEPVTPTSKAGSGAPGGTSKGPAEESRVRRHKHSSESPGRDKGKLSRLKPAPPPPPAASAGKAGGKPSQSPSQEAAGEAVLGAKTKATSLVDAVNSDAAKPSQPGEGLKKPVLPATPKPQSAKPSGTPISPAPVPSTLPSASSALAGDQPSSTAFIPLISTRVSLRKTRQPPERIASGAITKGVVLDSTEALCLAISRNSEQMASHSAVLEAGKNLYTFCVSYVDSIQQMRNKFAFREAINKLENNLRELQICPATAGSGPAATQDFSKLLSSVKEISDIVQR
IC50 (WT Abl),IC50 (WT Src),In vitro cleavage of 32P-stem-loop RNA by human Ire1 (human Ire1),RNA cleavage (yIre1 activation) (yIre1 [3]),effect of EDTA (chelation of magnesium) on RNase activity of Ire1KR32 stimulated by the substance (Ire1KR32; FIG. 3F),inhibition of Ire1 RNase (yIre1 [4]),SMILES,activation of Ire1 (Ire1),activation of the RNase of Ire1KR32 (Ire1KR32),% splicing mRNA XBP-I Average ([1]; Tm 0.3 ug/ml + compound 2 μM),% splicing mRNA XBP-I Average ([1]; compound 2 μM),% splicing mRNA XBP-I Average ([1]; compound 10 μM),in vivo activation of Ire1 ([1]; summary statement),% fold induction to Control ([2]; Tm 0.3 ug/ml + compound 2 uM),Mean fluorescence ([2]; Tm 0.3 ug/ml + compound 2 uM),% fold induction to Control ([2]; compound 2 uM),Mean fluorescence ([2]; compound 2 uM),inhibition of Ire1 (Ire1)
–,–,–,0.07509,remained unchanged,–,c1cc(Nc2cc(C3CC3)[nH]n2)nc(Nc2ccc3[nH]cnc3c2)n1 [APY29],significant activation,Potent activators,40%,10%,14%,–,65%,4016,11%,2697,–
–,–,–,0.001872,–,inhibit Ire1,Cc1cc(Nc2cc(C3CCCCC3)n[nH]2)nc(Nc2ccc(CC#N)cc2)n1 [APY81],–,–,7%,11%,16%,–,–,–,–,–,significant inhibition

# Second part, the compound before the results:
SMILES,IC50 (WT Abl),IC50 (WT Src),In vitro cleavage of 32P-stem-loop RNA by human Ire1 (human Ire1),RNA cleavage (yIre1 activation) (yIre1 [3]),effect of EDTA (chelation of magnesium) on RNase activity of Ire1KR32 stimulated by the substance (Ire1KR32; FIG. 3F),inhibition of Ire1 RNase (yIre1 [4]),activation of Ire1 (Ire1),activation of the RNase of Ire1KR32 (Ire1KR32),% splicing mRNA XBP-I Average ([1]; Tm 0.3 ug/ml + compound 2 μM),% splicing mRNA XBP-I Average ([1]; compound 2 μM),% splicing mRNA XBP-I Average ([1]; compound 10 μM),in vivo activation of Ire1 ([1]; summary statement),% fold induction to Control ([2]; Tm 0.3 ug/ml + compound 2 uM),Mean fluorescence ([2]; Tm 0.3 ug/ml + compound 2 uM),% fold induction to Control ([2]; compound 2 uM),Mean fluorescence ([2]; compound 2 uM),inhibition of Ire1 (Ire1)
"O=C(Nc1ccc(Nc2nccc(Nc3cc(C4CC4)n[nH]3)n2)cc1)c1cccc(C(F)(F)F)c1 [AD74, N-(4-(4-(3-cyclopropyl-1H-pyrazol-5-ylamino)pyrimidin-2-ylamino)phenyl)-3-(trifluoromethyl)benzamide]",2150 nM,357 nM,0.0877,–,–,–,significant activation,–,–,–,–,–,–,–,–,–,–
"O=C(Nc1ccc(Nc2nccc(Nc3cc(C4CC4)n[nH]3)n2)cc1)Nc1cccc(C(F)(F)F)c1 [AD75, 1-(4-(4-(3-cyclopropyl-1H-pyrazol-5-ylamino)pyrimidin-2-ylamino)phenyl)-3-(3-(trifluoromethyl)phenyl)urea]",2430 nM,170 nM,0.2317,–,–,–,significant activation,–,–,–,–,–,–,–,–,–,–
"O=C(Nc1cccc(Nc2nccc(Nc3cc(C4CC4)n[nH]3)n2)c1)c1cccc(C(F)(F)F)c1 [AD76, N-(3-(4-(3-cyclopropyl-1H-pyrazol-5-ylamino)pyrimidin-2-ylamino)phenyl)-3-(trifluoromethyl)benzamide]",4960 nM,138 nM,0.0139,–,–,–,significant activation,–,–,–,–,–,–,–,–,–,–
"O=C(Nc1cccc(Nc2nccc(Nc3cc(C4CC4)n[nH]3)n2)c1)Nc1cccc(C(F)(F)F)c1 [AD77, 1-(3-(4-(3-cyclopropyl-1H-pyrazol-5-ylamino)pyrimidin-2-ylamino)phenyl)-3-(3-(trifluoromethyl)phenyl)urea]",36800 nM,442 nM,0.0239,–,–,–,significant activation,–,–,–,–,–,–,–,–,–,–
N#CCc1ccc(Nc2nccc(Nc3cc(C4CC4)[nH]n3)n2)cc1 [APY24],–,–,–,0.04667,–,–,significant activation,Potent activators,28%,30%,44%,significant in vivo activation,−2%,2387,6%,2569,–
